Data: BindingDB's records for doi:10.1021/jm030030n (Virginia Commonwealth University, 2003)
pKi: −log10 of the molar value.

Key:
[1] = Binding affinity for rodent 5-hydroxytryptamine 5A receptor
[2] = Binding affinity of compound towards rodent 5-hydroxytryptamine 7 receptor

Structure (SMILES) | pKi [1] | pKi [2]
CCN(CC)C(=O)[C@@H]1C=C2c3cccc4[nH]c(I)c(c34)C[C@H]2N(C)C1 | > 8.00 | 
CCCCC(=O)c1ccc(F)cc1 [1-(4-Fluoro-phenyl)-pentan-1-one] |  | 6.85
Oc1ccc2cccc(N3CCNCC3)c2c1 [8-Piperazin-1-yl-naphthalen-2-ol] | 8.52 | 
CCN(CC)C(=O)[C@@H]1C=C2c3cccc4[nH]c(Br)c(c34)C[C@H]2N(C)C1 [LSD,2-Bromo] | > 8.00 | 
